The source of these data is patent US6440986B2, “HIV Inhibiting pyrimidine derivatives” (Janssen Pharmaceutica, N.V., priority 1998, dated 2002).

A short description of data set [1]: cytotoxicity in mock-infected MT-4 cells (MTT). The following applies: human, mock-infected MT-4 cells, 50% cytotoxic concentration; reduces absorbance of mock-infected MT-4 control by 50%; MTT. It counts as cell-based. As for the experimental part:
A rapid, sensitive and automated assay procedure was used for the in vitro evaluation of anti-HIV agents. […] Inhibition of the HIV-induced cytopathic effect was used as the end point. The viability of both HIV- and mock-infected cells was assessed spectrophotometrically via the in situ reduction of 3-(4,5-dimethylthiazol-2-yl)-2,5-diphenyltetrazolium bromide (MTT). […] The percent protection achieved by the compound in HIV-infected cells was calculated by the following formula: [formula]
(§1) whereby (ODT)HIV is the optical density measured with a given concentration of the test compound in HIV-infected cells; (ODC)HIV is the optical density measured for the control untreated HIV-infected cells: (ODC)MOCK is the optical density measured for the control untreated mock-infected cells; all optical density values were determined at 540 nm. […] The ratio of CC50 to IC50 was defined as the selectivity index (SI).

The test system of a further data set is HIV-1. Put plainly: in vitro anti-HIV assay: inhibition of the HIV-induced cytopathic effect in MT-4 cells (MTT). The data set is classed as cell-based. The following applies: Human immunodeficiency virus 1, MT4, dose achieving 50% protection of HIV-infected MT-4 cells against cytopathic effect, OD 540 nm. As for the experimental part: A rapid, sensitive and automated assay procedure was used for the in vitro evaluation of anti-HIV agents. An […] T4-cell line, MT-4, which was previously shown (Koyanagi et al., Int. J. Cancer, 36, 445-451, 1985) to be highly susceptible to and permissive for HIV infection, served as the target cell line. Inhibition of the HIV-induced cytopathic effect was used as the end point. The viability of both HIV- and mock-infected cells was assessed spectrophotometrically via the in situ reduction of 3-(4,5-dimethylthiazol-2-yl)-2,5-diphenyltetrazolium bromide (MTT). […] The percent protection achieved by the compound in HIV-infected cells was calculated by the following formula: [formula]
as §1

Where only a bound is given, the exact number is not on record here.

As a reminder, the CC50 is the concentration at which the toxic effect on the cells reaches its halfway point. A higher CC50 goes with better tolerance by the cells. For orientation: IC50 means the point on the concentration scale where inhibition reaches its midpoint. A high value points to weaker potency. Usually melting point stands for the temperature of the solid-liquid transition. Compound `N#Cc1ccc(Nc2nc(Cc3c(Cl)cccc3Cl)cc(NCCN3CCCC3)n2)cc1` [Compound 13, 4-[[4-[(2,6-dichloro-phenyl)methyl]-6-[[2-(1-pyrrolidinyl)ethyl]amino]-2-pyrimidinyl]amino]benzonitrile] returned a melting point of 80 to 85 °C. In data set [1], it took 7800 nM to reach half-maximal cytotoxicity (CC50). In the data set on HIV-1, half-maximal inhibition (IC50) was put at 5 nM.
As to `CCCCCCCC(=O)Nc1cc(Cc2c(Cl)cccc2Cl)nc(Nc2ccc(C#N)cc2)n1` [Compound 17, N-[6-[(2,6-dichloro-phenyl)methyl]-2-[(4-cyano-phenyl)amino]-4-pyrimidinyl]octanamide], the melting point was in the range of 135 to 137 °C. In addition, half-maximal cytotoxicity in data set [1] (CC50) was put at 9100 nM. In the data set with HIV-1, this compound came in with an IC50 of 167 nM.
The matching figures for `N#Cc1ccc(Nc2nc(Cc3c(Cl)cccc3Cl)cc(NC(=O)CN3CCCCC3)n2)cc1` [Compound 25, N-[6-[(2,6-dichloro-phenyl)methyl]-2-[(4-cyano-phenyl)amino]-4-pyrimidinyl]-1-piperidine-acetamide]: 175 to 180 °C, more than 100000 nM and 79 nM.
In turn, `CN(C)C=Nc1cc(Cc2c(Cl)cccc2Cl)nc(Nc2ccc(C#N)cc2)n1` [Compound 26, N′-[2-[(4-cyanophenyl)amino]-6-[(2,6-dichlorophenyl)methyl]-4-pyrimidinyl]-N,N-dimethylmethanimidamide] returned a melting point of 175 to 180 °C. In addition, the CC50 in data set [1] came out at 33500 nM. The compound further came in with an IC50 with HIV-1 of 11 nM.
`Cc1cc(C)c(Nc2ccnc(Nc3ccc(C(N)=O)cc3)n2)c(C)c1` [Compound 100, 4-[[4-[(2,4,6-trimethylphenyl)amino]-2-pyrimidinyl]amino]benzamide] came in with a CC50 in data set [1] of 800 nM. For the same compound, in the data set with HIV-1, the IC50 is 75 nM.
